Results reported in US20220154242A1, “METHOD FOR MODIFYING SUBSTRATE SPECIFICITY OF GLUCOSE DEHYDROGENASE AND AGENT FOR MODIFYING SUBSTRATE SPECIFICITY OF GLUCOSE DEHYDROGENASE” (KIKKOMAN CORPORATION, priority 2019, published 2022).

Experiments:
MrdGDH [1] = test: Maltose/glucose response current ratio, IPPD/MrdGDH-immobilized screen-printed electrode (chronoamperometry); format: biochemical, Mucor RD056860; details: for Maltose/Glucose (%) / Relative value (%) of Maltose/Glucose: 5 mM additive; for Maltose/Glucose (%): 1 mM maltose, 1 mM glucose; for Relative value (%) of Maltose/Glucose: no modifier = 100%
Text: (§1) The ratio (Mal/Glu) of the reactivity of the glucose dehydrogenase to maltose (Mal) relative to the reactivity thereof to glucose (Glu) can be determined by the following procedures. Onto a printed carbon electrode, N-isopropyl-N′-phenyl-p-phenylenediamine (IPPD) is immobilized by adsorption and a glucose dehydrogenase is immobilized by cross-linking using glutaraldehyde, wherein the glucose dehydrogenase is, for example, a glucose dehydrogenase from a microorganism of the genus Mucor or a glucose dehydrogenase from a microorganism of the genus Aspergillus. Chronoamperometry is performed by using a three-electrode system composed of a working electrode, a counter electrode, and a reference electrode and applying a potential of +250 mV (Ag/AgCl). Once the current value has become sufficiently constant, maltose is added to a final concentration of 1 mM in phosphate-buffered saline (PBS) (for example, maltose is added 100 seconds after the start of measurement). Next, once the current value has become sufficiently constant again after the addition of maltose, glucose is added to a final concentration of 1 mM in phosphate-buffered saline (PBS) (for example, glucose is added 100 seconds after the addition of maltose). The substrate specificity of glucose dehydrogenase can be evaluated by measuring the reactivity thereof to maltose when the reactivity thereof to glucose is considered as 100%. In the present specification, the ratio of the reactivity to maltose (Mal) relative to the reactivity to glucose (Glu) may be denoted as Mal/Glu. When the reactivity is evaluated based on the response current(s), the ratio of the reactivity may be expressed as the ratio of the response current(s).
(§2) 10 μL of 12 mg/ml MpGDH purified preparation, 10 μL of 15 mM each glucose analog, and 10 μL of 20 mM potassium phosphate buffer were mixed and allowed to stand for 2 hours or longer. N-isopropyl-N′-phenyl-p-phenylenediamine (IPPD) was immobilized by adsorption onto screen-printed electrodes (manufactured by DropSens, Product number: DRP-C110) and 12 μg of each MpGDH was applied to the electrodes and allowed to dry at room temperature. Lastly, the electrodes were placed in 25% glutaraldehyde vapor and the resulting electrodes were washed with pure water to obtain IPPD.MpGDH-immobilized electrodes. Next, the electrode was connected to an ALS electrochemical analyzer 814D via a dedicated connector (DRP-CAC). Then, the IPPD.GDH-immobilized electrode, an Ag/AgCl reference electrode, and a platinum counter electrode were immersed in PBS and chronoamperometric measurement was carried out. The applied voltage was set to +250 mV (Ag/AgCl). Once the current value had become sufficiently constant (about 100 seconds after the start of measurement), maltose was added to a final concentration of 1 mM in PBS. Next, subsequently to the addition of the maltose solution, once the current value had become sufficiently constant again (about 100 seconds after the addition of maltose), a glucose solution was added to a final concentration of 1 mM. The difference in the response current before and after the addition of maltose was recorded as the response current value of maltose, and the difference in the response current before and after the addition of glucose was recorded as the response current value of glucose. The value calculated by dividing the response current value of maltose by the response current value of glucose was expressed as maltose/glucose (%). […] Furthermore, when the maltose/glucose of MpGDH in the absence of a substrate specificity modifier is considered as 100%, the value in the presence of D-glucal became 69%, and the substrate specificity was modified.
(§3) In the same manner, MrdGDH was used to examine the effect of the substrate specificity modifier.

[2] = tested on: GLD1 (glucose dehydrogenase (FAD-dependent), BBI Solutions); test: Maltose/glucose response current ratio, unimmobilized GLD1 with mPMS (chronoamperometry); format: biochemical, Aspergillus; details: for Maltose/Glucose (%) / Relative value (%) of Maltose/Glucose: 5 mM additive; for Maltose/Glucose (%): mPMS; for Relative value (%) of Maltose/Glucose: no modifier = 100%
Protocol: (§4) 10 μL of 12 mg/ml MpGDH purified preparation, 10 μL of 15 mM each glucose analog, and 10 μL of 20 mM potassium phosphate buffer were mixed and allowed to stand for 2 hours or longer. Onto screen-printed electrodes (manufactured by DropSens, Product number: DRP-C110), 80 μL of PBS, 5 μL of each MpGDH solution, and 10 μL of 2 mg/ml mPMS solution were applied and mixed. Chronoamperometric measurement was carried out at an applied voltage of +100 mV (Ag/Ag+). Once the current value had become sufficiently constant (about 100 seconds after the start of measurement), a maltose solution was added to a final concentration of 5 mM and mixed by pipetting up and down. Measurement was stopped once the current value had become sufficiently constant. The difference in the response current before and after the addition of maltose was regarded as the response current value of maltose. In contrast, when an equivalent amount of pure water was added instead of the maltose solution, increase in the response current was not observed. The used printed electrode was thoroughly washed with ultrapure water and dried, and then chronoamperometric measurement was carried out in the same manner as above. A glucose solution was added instead of the maltose solution and the response current value of glucose was measured. The value calculated by dividing the response current value of maltose by the response current value of glucose was expressed as maltose/glucose (%).
In the same manner, GLD1 was used to examine the effect of the substrate specificity modifier.

[3] = tested on: GLD1 (glucose dehydrogenase (FAD-dependent), BBI Solutions); test: Maltose/glucose response current ratio, IPPD/GLD1-immobilized screen-printed electrode (chronoamperometry); format: biochemical, Aspergillus; details: for Maltose/Glucose (%) / Relative value (%) of Maltose/Glucose: 5 mM additive; for Maltose/Glucose (%): 1 mM maltose, 1 mM glucose; for Relative value (%) of Maltose/Glucose: no modifier = 100%
Text: as §1, §2
In the same manner, glucose dehydrogenase (FAD-dependent) (from BBI Solutions, Product Code: GLD1, hereinafter denoted as GLD1) was used to examine the effect of the substrate specificity modifier.

Wild type MpGDH [4] = test: Maltose/glucose response current ratio, IPPD/MpGDH-immobilized screen-printed electrode (chronoamperometry); format: biochemical, Mucor prainii; details: for Relative value (%) of Maltose/Glucose / Maltose/Glucose (%): 5 mM additive, immobilized wild type MpGDH; for Relative value (%) of Maltose/Glucose: no modifier = 100%; for Maltose/Glucose (%): 1 mM maltose, 1 mM glucose, +250 mV; for Modification of substrate specificity: immobilized MpGDH
Text: as §1, §2

MrdGDH [5] = test: Maltose/glucose response current ratio, unimmobilized MrdGDH with mPMS (chronoamperometry); format: biochemical, Mucor RD056860; details: for Maltose/Glucose (%) / Relative value (%) of Maltose/Glucose: 5 mM additive; for Maltose/Glucose (%): mPMS; for Relative value (%) of Maltose/Glucose: no modifier = 100%
Protocol: as §4, §3

MpGDH = test: Maltose/glucose response current ratio, unimmobilized MpGDH with mPMS (chronoamperometry); format: biochemical, Mucor prainii; details: for maltose/glucose relative to MpGDH considered as 100%: unimmobilized MpGDH, mPMS, 5 mM maltose, +100 mV
Protocol: as §4

Wild type MpGDH [6] = test: Maltose/glucose response current ratio, MWCNT/DPPD/MpGDH-immobilized carbon cloth electrode (chronoamperometry); format: biochemical, Mucor prainii; details: for Maltose/Glucose Relative value (%): 50 mM additive, wild type MpGDH on carbon cloth electrode, no modifier = 100%; for Modification of substrate specificity of GDH: carbon cloth electrode, MpGDH
Protocol: The cloth was thoroughly dried and then washed with ultrapure water. Subsequently, 40 mg/ml wild type MpGDH and 20 μl of 100 mM various glucose analogs dissolved in ultrapure water were mixed in equal proportions, and 20 μl of the resulting solution was applied to the […] immobilized electrode. After being allowed to dry at room temperature, the electrode was placed in 25% glutaraldehyde vapor for 20 minutes to immobilize MpGDH by cross-linking. Then, the electrode was subjected to washing with ultrapure water in the same manner as above to obtain an […]-immobilized electrode. Next, this electrode was connected to an ALS electrochemical analyzer […]. Then, the […]-immobilized electrode, an Ag/AgCl reference electrode, and a platinum counter electrode were immersed in PBS, and chronoamperometric measurement was carried out. The applied voltage was set to +250 mV (Ag/AgCl). […] The difference in the response current before and after the addition of maltose was recorded as the response current value of maltose, and the difference in the response current before and after the addition of glucose was recorded as the response current value of glucose. The value calculated by dividing the response current value of maltose by the response current value of glucose was expressed as maltose/glucose (%). […] An […]-immobilized electrode was made in the same manner as Example 4 except that the application step was altered. That is, 20 μl of 40 mg/ml wild type MpGDH was mixed with 10 μl each of 100 mM glycerol and 100 mM L-iditol dissolved in ultrapure water, and 20 μl of the resulting solution was applied to the […] immobilized electrode for the application step. Then, chronoamperometric measurement was carried out according to the method described in Example 4, and the maltose/glucose (%) was calculated.

SMILES	Modification of substrate specificity (MrdGDH [1])	Maltose/Glucose (%) (MrdGDH [1])	Relative value (%) of Maltose/Glucose (MrdGDH [1]) [%]	Modification of substrate specificity [2]	Maltose/Glucose (%) [2] [%]	Relative value (%) of Maltose/Glucose [2] [%]	Modification of substrate specificity [3]	Maltose/Glucose (%) [3] [%]	Relative value (%) of Maltose/Glucose [3] [%]	Relative value (%) of Maltose/Glucose (Wild type MpGDH [4]) [%]	Modification of substrate specificity (MrdGDH [5])	Maltose/Glucose (%) (MrdGDH [5])	Relative value (%) of Maltose/Glucose (MrdGDH [5]) [%]	Maltose/Glucose (%) (Wild type MpGDH [4])	Modification of substrate specificity (Wild type MpGDH [4])	maltose/glucose relative to MpGDH considered as 100% (MpGDH) [%]	Maltose/Glucose Relative value (%) (Wild type MpGDH [6])	Modification of substrate specificity of GDH (Wild type MpGDH [6])	Acts as substrate specificity modifier (MpGDH; enzyme not immobilized)
OC[C@H]1OC=C[C@@H](O)[C@@H]1O [D-glucal]	modified the substrate specificity	18.1	78	modified the substrate specificity	0.25	76	modified the substrate specificity	0.09	30	69									
OC[C@@H](O)[C@H](O)[C@@H](O)[C@H](O)CO [D-iditol]	modified the substrate specificity	19.3	83				modified the substrate specificity	0.01	4	22	modified the substrate specificity	21.6	70	0.1	modified the substrate specificity	84			
OC[C@@H](O)[C@@H](O)[C@H](O)[C@H](O)CO [D-mannitol]																	3	modified the substrate specificity	
OCC(O)CO [Glycerol, glycerol]																	29	modified the substrate specificity	
O=C[C@@H](O)[C@@H](O)[C@H](O)[C@@H](O)CO [L-gulose]				modified the substrate specificity	0.23	70	modified the substrate specificity	0	0	74	modified the substrate specificity	28	90	0.34	modified the substrate specificity	56	62	modified the substrate specificity	
OC[C@H](O)[C@@H](O)[C@H](O)[C@@H](O)CO [L-iditol]				modified the substrate specificity	0.25	76	modified the substrate specificity	0	0							68	58	modified the substrate specificity	act as a substrate specificity modifier
OC[C@@H](O)[C@@H](O)[C@@H](O)CO [Ribitol, ribitol]				modified the substrate specificity	0.29	88				17	modified the substrate specificity	22	71	0.08	modified the substrate specificity	58			
OC[C@@H](O)[C@@H](O)[C@H](O)[C@@H](O)CO [Sorbitol, sorbitol]	modified the substrate specificity	17	73							43	modified the substrate specificity	23	74	0.2	modified the substrate specificity	67			
OC[C@H]1O[C@H](O[C@H]2O[C@H](CO)[C@@H](O)[C@H](O)[C@H]2O)[C@H](O)[C@@H](O)[C@@H]1O [Trehalose, trehalose]	modified the substrate specificity	14.4	62	modified the substrate specificity	0.28	85	modified the substrate specificity	0.08	35		modified the substrate specificity	22	71			72			
OC[C@@H](O)[C@H](O)[C@@H](O)CO [Xylitol, xylitol]																	21	modified the substrate specificity	
